Holding throughout (assay type): cell-based
Experiment [1] relates to Wild-type HIV-1. In words: A3F-mediated restriction of wild-type HIV-1; virus from 293T stably expressing A3F, TZM-bl readout. The note with it: Human immunodeficiency virus 1, HEK-293T, read-out: A3F-mediated Restriction by Compounds on Wild-type HIV-1 (% of HIV replication relative to DMSO treated Control). The protocol: To test the effect of compounds shown to boost A3G-Luc levels in our screening systems on inhibition of wild-type HIV-1 replication by A3G or A3F, 293T cell lines stably expressing A3G or A3F were plated (750,000 cells per well in 6-well plate). At 24 hrs post plating, 1.5 μg of a wild-type (Vif-positive) HIV-1 proviral vector, NL4.3, was transfected into the 293T stable cell lines expressing either A3G or A3F. At 4 hrs post transfection, either DMSO as a control or an individual compound from series described below was added into the culture medium at a 10 μM concentration. At 1 day post transfection, supernatant fluids containing viral particles were filtered through […] filter to remove cellular debris. To test the effect of compound on HIV-1 replication, TZM-bl indicator cells were plated at a density of 10,000 cells/well in a 96 well culture plate 24 hrs prior to infection. TZM-bl indicator cells express luciferase gene under the control of HIV LTR promoter and are routinely used to measure HIV-1 replication capability. On the day of infection, the culture medium was removed and the cells inoculated with equal amount of HIV-1 particles in triplicate with 100 μl of viral supernatants in culture medium containing 20 μg/ml DEAE-dextran. After 24 hrs of incubation, culture medium was removed from each well and replaced with 100 μl of Britelite Plus luciferase assay substrate. Following 5 min. of incubation at room temperature, 75 μl of each cell lysate was transferred to a 96-well OptiPlate 96 and luminescence was measured in a VICTOR X2 Multilabel Reader as described above. Relative infectivity was calculated by plotting luciferase activity from viral particle from DMSO treated A3G or A3F cell lines as 100%. We only tested effect A3F- or A3G mediated restriction of HIV-1 replication by compounds boosting luciferase activity by more than 160% compared to DMSO control sample.

Experiment [2] concerns PC3. In words: Cancer cell death, cell numbers vs DMSO. Particulars: 6 μM, 8 days; prostate cell line, no p53 expression. From the text: (§1) To test the effect of the compounds described below on cancer cell death, cell lines derived from different types of cancer were studied in vitro. MCF10A, MCF7, T47D, MDA-MB-157 and MDA-MB-231 are breast cancer cell lines. NHPrE, BHPrE, RWPE1, DU145, and PC3 cells are prostate cell lines. HeLa is cervical cancer cell line. HEK293 is human embryonic kidney cell line lacking A3B expression. There are differences among these cancer cell lines in p53 expression (44-46). MCF10A, MCF7, NHPrE, BHPrE and HEK293 cells have wild-type and functional p53. RWPE1 and HeLa cells have wild-type p53 but the p53 protein in these cell line is not functional because of effects of human papilloma virus E6 protein. T47D, MDA-MB-231, and DU145 cell lines have mutant p53, while MDA-MB-157 and PC3 cells have no p53 expression. 25,000 cells per well were plated in 6 well plates. In the case of HEK293 cells. 500,000 cells per well in 6-well plates were used instead. After 24 hrs, culture medium was replaced with new medium containing either DMSO as control or one of the compounds described below (6 μM per well concentration). After 8 days incubation with compounds, cell numbers were counted from each well and plotted with number of cells from DMSO treated sample as 100%. We performed the experiments at least twice. HEK293, MCF7 and T47D cells they were maintained for 16 days with compounds instead of 8 days.

The subject of experiment [3] is MCF7. The experiment in a line: Cancer cell death, cell numbers vs DMSO. Particulars: 6 μM, 16 days; breast cancer cell line, wild-type functional p53.
Excerpt: as §1

The subject of experiment [4] is T47D. In words: Cancer cell death, cell numbers vs DMSO. Particulars: 6 μM, 16 days; breast cancer cell line, mutant p53.
Excerpt: as §1

In experiment [5] the test system is RWPE1. In words: Cancer cell death, cell numbers vs DMSO. The note with it: 6 μM, 8 days; prostate cell line, p53 not functional.
Excerpt: as §1

The test system of experiment [6] is HeLa. In words: Cancer cell death, cell numbers vs DMSO. The note with it: 6 μM, 8 days; cervical cancer cell line, p53 not functional.
Excerpt: as §1

Experiment [7] relates to MDA-MB-157. The experiment in a line: Cancer cell death, cell numbers vs DMSO. The note with it: 6 μM, 8 days; breast cancer cell line, no p53 expression.
Excerpt: as §1

For experiment [8], the system named is BHPrE. The experiment in a line: Cancer cell death, cell numbers vs DMSO. The note with it: 6 μM, 8 days; prostate cell line, wild-type functional p53.
Excerpt: as §1

For experiment [9], the system named is MCF10A. In words: Cancer cell death, cell numbers vs DMSO. The note with it: 6 μM, 8 days; breast cell line, wild-type functional p53.
Excerpt: as §1

Experiment [10] deals with MDA-MB-231. The experiment in a line: Cancer cell death, cell numbers vs DMSO. The note with it: 6 μM, 8 days; breast cancer cell line, mutant p53.
Excerpt: as §1

Experiment [11] has as its system NHPrE. The experiment in a line: Cancer cell death, cell numbers vs DMSO. Particulars: 6 μM, 8 days; prostate cell line, wild-type functional p53.
Excerpt: as §1

In experiment [12] the test system is DU145. In words: Cancer cell death, cell numbers vs DMSO. Particulars: 6 μM, 8 days; prostate cell line, mutant p53.
Excerpt: as §1

As for `COc1ccc(C(=O)Nc2ccc(Cl)c(Cl)c2)cc1NC(=O)C(C)C` [NU-52], the activity at 10 µM in experiment [1] came to 57%. The “cell killing (cell numbers vs DMSO)” value in [2] was “kill”; in experiment [3], “not killed”; in [4], “kill”; in experiment [5], “kill”; in [6], “kill”; in [7], “kill”. In addition, the “cell killing (cell numbers vs DMSO)” value in experiment [8] is “not killed”; in experiment [9], “not killed”; in experiment [10], “kill”; in experiment [11] it was “not killed”; in [12], “kill”.

`COc1ccc(C(=O)Nc2ccc(Cl)c(Cl)c2)cc1NC(=O)C1CCC1` [NU-302]: in experiment [1], the activity at 10 µM is 58%. Moreover, the “cell killing (cell numbers vs DMSO)” value in [2] is “kill”; in [3], “not killed”; in [4], “kill”; in experiment [5], “kill”; in experiment [6], “kill”; in [7], “kill”. The “cell killing (cell numbers vs DMSO)” value in experiment [8] was “not killed”; in [9], “not killed”; in experiment [10] it was “kill”; in [11], “not killed”; in [12], “kill”.

In the case of `COc1ccc(C(=O)Nc2ccc(Cl)c(Cl)c2)cc1NC(=O)CC1CC1` [NU-466], the activity at 10 µM in experiment [1] was 59%. Moreover, the “cell killing (cell numbers vs DMSO)” value in experiment [2] is reported as “kill”; in [3], “not killed”; in experiment [4], “kill”; in [5] it was “kill”; in experiment [6], “kill”; in [7], “kill”. The “cell killing (cell numbers vs DMSO)” value in experiment [8] is reported as “not killed”; in [9] it was “not killed”; in experiment [10], “kill”; in experiment [11], “not killed”; in experiment [12], “kill”.

The record behind these values is US9688637B2, “3-amidobenzamides and uses thereof for increasing cellular levels of A3G and other A3 family members” (Northwestern University, priority 2014, dated 2017).
